In patent publication US20140179518A1, “Pesticidal Mixtures Comprising Cyanosulfoximine Compounds” (BASF SE, priority 2007, published 2014) one finds Observed efficacy data, which are given here for ten compounds.

Common to all, as to assay type: cell-based
Common to all, as to settings: single active

One test relates to Botrytis cinerea. Nature of the test: Activity against the grey mold Botrytis cinerea in the microtiterplate test (Botrci).
The next test relates to Septoria tritici. Description: Activity against leaf blotch on wheat caused by Septoria tritici (Septtr), microtiter plate.
A further test deals with Phytophthora infestans.
A further test has as its system Pyricularia oryzae.
The mark [1] stands for this setting: 4 ppm, 405 nm, 7 days after inoculation.
Setting [2] is: 63 ppm, 405 nm, 7 days after inoculation.

Like-named read-outs stand apart in the source and are kept apart here.

Turning to `Fc1ccc([C@]2(Cn3cncn3)O[C@H]2c2ccccc2Cl)cc1` (racemic) [Epoxiconazol, (2RS,3SR)-1-[3-(2-chlorophenyl)-2,3-epoxy-2-(4-fluorophenyl)propyl]-1H-1,2,4-triazole], the Observed efficacy in the test with Botrytis cinerea (0.063 ppm, 7 days) was found to be 3%; in the test on Septoria tritici (0.063 ppm, 7 days) it was 68%.
For the compound `CC(C)OC(=O)N[C@H](C(=O)N[C@H](C)c1nc2ccc(F)cc2s1)C(C)C` [Benthivalicarb, isopropyl {(S)-1-[(1R)-1-(6-fluorobenzothiazol-2-yl)-ethylcarbamoyl]-2-methylpropyl}carbamate], the Observed efficacy in the test with Phytophthora infestans (0.063 ppm, 7 days) is recorded as 65%.
For the compound `N#CN=S1(=O)CCCC1Cc1ccc(Cl)nc1` (centres unmarked) [C.I.5], the Observed efficacy in the test with Botrytis cinerea (16 ppm, 7 days) is recorded as 0%; in the test with Phytophthora infestans (1 ppm, 7 days) it was 0%; in the test with Pyricularia oryzae (16 ppm, 7 days), 3%; in the test with Septoria tritici (0.25 ppm, 7 days) it was 0%; in the test with Septoria tritici (setting [1]) it was 2%.
As for `CC(c1ccc(C(F)(F)F)nc1)S(C)(=O)=NC#N` (centres unmarked) [C.I.10], the Observed efficacy in the test on Botrytis cinerea (4 ppm, 7 days) came to 3%; in the test on Phytophthora infestans (1 ppm, 7 days), 0%; in the test with Septoria tritici (1 ppm, 7 days), 0%; with Septoria tritici (setting [1]), 2%.
Regarding `CCNC(=O)NC(=O)C(C#N)=NOC` [Cymoxanil, 1-(2-cyano-2-methoxyiminoacetyl)-3-ethylurea], the Observed efficacy was determined as 17% in the test with Botrytis cinerea (setting [2]); 32% with Phytophthora infestans (0.25 ppm, 405 nm, 7 days after inoculation); 8% in the test with Pyricularia oryzae (setting [2]).
The compound `N#Cc1sc2c(=O)c3ccccc3c(=O)c=2sc1C#N` [Dithianon, 5,10-dioxo-5,10-dihydronaphtho[2,3-b][1,4]dithiin-2,3-dicarbonitrile] yielded an Observed efficacy in the test on Botrytis cinerea (0.25 ppm, 7 days) of 12%.
In the case of `CO/N=C(/C1=NOCCO1)c1ccccc1Oc1ncnc(Oc2ccccc2Cl)c1F` [Fluoxastrobin, (E)-{2-[6-(2-chlorophenoxy)-5-fluoropyrimidin-4-yloxy]phenyl}(5,6-dihydro-1,4,2-dioxazin-3-yl)methanone O-methyloxime], the Observed efficacy with Septoria tritici (0.016 ppm, 7 days) is on record as 15%.
Turning to `COC=C(C(=O)OC)c1ccccc1COc1cccc(C(F)(F)F)n1` [Picoxystrobin, methyl 3-methoxy-2-[2-(6-trifluoromethylpyridin-2-yloxymethyl)phenyl]acrylate], the Observed efficacy in the test with Septoria tritici (0.063 ppm, 7 days) worked out at 63%.
Consider `Fc1ccc(Oc2ccnc3cc(Cl)cc(Cl)c23)cc1` [Quinoxyfen, 5,7-dichloro-4-(4-fluorophenoxy)quinoline], for which the Observed efficacy with Pyricularia oryzae (16 ppm, 7 days) came to 4%.
Regarding `CC(C)(C)C(O)(CCc1ccc(Cl)cc1)Cn1cncn1` (centres unmarked) [Tebuconazol, 1-(4-chlorophenyl)-4,4-dimethyl-3-[1,2,4]triazol-1-ylmethylpentan-3-ol], the Observed efficacy in the test with Septoria tritici (0.25 ppm, 7 days) is 67%.
